Tests used:
Assay in all cases: relative viability (nuclei count vs DMSO), 5 days (fraction); higher = more cells survive
[1] = tested on: HOP-62
In short: (§1)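 Lung cancer cell lines, seeded in 1536-well plates, were treated the following day by pin tool with a single drug or with five library-drug doses (not always all listed) in √10 steps on top of a fixed anchor-drug dose. Cells were fixed and nuclei stained in one step after 5 days, and nuclei were counted. Relative viability is the nuclei count for treated wells divided by that for vehicle wells, reported as medians of duplicate plates.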

[2] = tested on: HARA
In short: as §1

[3] = tested on: NCI-H1755
In short: as §1

[4] = tested on: UMC-11
In short: as §1

[5] = tested on: NCI-H727
In short: as §1

[6] = tested on: NCI-H1437
In short: as §1

[7] = tested on: EMC-BAC-2
In short: as §1

[8] = tested on: LK-2
In short: as §1

[9] = tested on: NCI-H1651
In short: as §1

[10] = tested on: PC-3 [JPC-3]
In short: as §1

[11] = tested on: NCI-H1563
In short: as §1

[12] = tested on: ABC-1
In short: as §1

[13] = tested on: NCI-H3122
In short: as §1

[14] = tested on: NCI-H1734
In short: as §1

[15] = tested on: NCI-H441
In short: as §1

[16] = tested on: COR-L23
In short: as §1

[17] = tested on: NCI-H2347
In short: as §1

[18] = tested on: NCI-H596
In short: as §1

[19] = tested on: RERF-LC-KJ
In short: as §1

[20] = tested on: SK-LU-1
In short: as §1

[21] = tested on: NCI-H1650
In short: as §1

[22] = tested on: CAL-12T
In short: as §1

With `Cc1csc(=NC2CCCCC2)n1/N=C/c1ccc(O)c(O)c1O` [MIM1] + CCNC(=O)c1noc(-c2cc(C(C)C)c(O)cc2O)c1-c1ccc(CN2CCOCC2)cc1 [Luminespib] (partner 0.01 µM) the relative viability ([1]; first compound 0.2 µM) was 1.01, the relative viability ([1]; first compound 0.6325 µM) was 0.841 and the relative viability ([1]; first compound 2 µM) was 0.893. The relative viability ([1]; first compound 6.325 µM) was 0.758, the relative viability ([1]; first compound 20 µM) was 0.301 and the relative viability ([2]; first compound 0.2 µM) was 0.866. For the same molecule, the relative viability ([2]; first compound 2 µM) was 0.776, the relative viability ([2]; first compound 6.325 µM) was 0.251 and the relative viability ([2]; first compound 20 µM) was 0.0856. For the same molecule, the relative viability ([3]; first compound 0.2 µM) was 0.455, the relative viability ([3]; first compound 0.6325 µM) was 0.51 and the relative viability ([3]; first compound 2 µM) was 0.703. For the same molecule, the relative viability ([3]; first compound 6.325 µM) was 0.459, the relative viability ([3]; first compound 20 µM) was 0.414 and the relative viability ([4]; first compound 0.2 µM) was 1.03. For the same molecule, the relative viability ([4]; first compound 2 µM) was 1.23, the relative viability ([4]; first compound 6.325 µM) was 0.686 and the relative viability ([4]; first compound 20 µM) was 0.369. For the same molecule, the relative viability ([5]; first compound 0.2 µM) was 0.353, the relative viability ([5]; first compound 0.6325 µM) was 0.309 and the relative viability ([5]; first compound 2 µM) was 0.386. It also gave a relative viability ([5]; first compound 6.325 µM) of 0.386, a relative viability ([5]; first compound 20 µM) of 0.392 and a relative viability ([6]; first compound 0.2 µM) of 1.07. It also gave a relative viability ([6]; first compound 0.6325 µM) of 1.1, a relative viability ([6]; first compound 2 µM) of 0.992 and a relative viability ([6]; first compound 6.325 µM) of 0.846. For the same molecule, the relative viability ([6]; first compound 20 µM) was 0.452, the relative viability ([7]; first compound 0.2 µM) was 1.12 and the relative viability ([7]; first compound 0.6325 µM) was 1.14. It also gave a relative viability ([7]; first compound 2 µM) of 1.13, a relative viability ([7]; first compound 6.325 µM) of 1.03 and a relative viability ([7]; first compound 20 µM) of 0.423. For the same molecule, the relative viability ([8]; first compound 0.2 µM) was 0.16, the relative viability ([8]; first compound 2 µM) was 0.169 and the relative viability ([8]; first compound 6.325 µM) was 0.195. It also gave a relative viability ([8]; first compound 20 µM) of 0.171, a relative viability ([9]; first compound 0.2 µM) of 0.876 and a relative viability ([9]; first compound 0.6325 µM) of 0.785. The relative viability ([9]; first compound 2 µM) was 0.617, the relative viability ([9]; first compound 6.325 µM) was 0.67 and the relative viability ([9]; first compound 20 µM) was 0.495. It also gave a relative viability ([10]; first compound 0.2 µM) of 0.508, a relative viability ([10]; first compound 0.6325 µM) of 0.661 and a relative viability ([10]; first compound 2 µM) of 0.674. For the same molecule, the relative viability ([10]; first compound 6.325 µM) was 0.65, the relative viability ([10]; first compound 20 µM) was 0.594 and the relative viability ([11]; first compound 0.2 µM) was 0.51. For the same molecule, the relative viability ([11]; first compound 0.6325 µM) was 0.607, the relative viability ([11]; first compound 2 µM) was 0.519 and the relative viability ([11]; first compound 6.325 µM) was 0.553. For the same molecule, the relative viability ([11]; first compound 20 µM) was 0.362, the relative viability ([12]; first compound 0.2 µM) was 0.499 and the relative viability ([12]; first compound 0.6325 µM) was 0.835. The relative viability ([12]; first compound 2 µM) was 0.497, the relative viability ([12]; first compound 6.325 µM) was 0.399 and the relative viability ([12]; first compound 20 µM) was 0.315. The relative viability ([13]; first compound 0.2 µM) was 0.0956, the relative viability ([13]; first compound 0.6325 µM) was 0.0902 and the relative viability ([13]; first compound 2 µM) was 0.103. It also gave a relative viability ([13]; first compound 6.325 µM) of 0.106, a relative viability ([13]; first compound 20 µM) of 0.0938 and a relative viability ([14]; first compound 0.2 µM) of 0.0909. For the same molecule, the relative viability ([14]; first compound 0.6325 µM) was 0.233, the relative viability ([14]; first compound 2 µM) was 0.198 and the relative viability ([14]; first compound 6.325 µM) was 0.168. The relative viability ([14]; first compound 20 µM) was 0.157, the relative viability ([15]; first compound 0.2 µM) was 0.253 and the relative viability ([15]; first compound 2 µM) was 0.327. It also gave a relative viability ([15]; first compound 6.325 µM) of 0.354, a relative viability ([15]; first compound 20 µM) of 0.191 and a relative viability ([16]; first compound 0.2 µM) of 0.555. The relative viability ([16]; first compound 0.6325 µM) was 0.75, the relative viability ([16]; first compound 2 µM) was 0.7 and the relative viability ([16]; first compound 6.325 µM) was 0.469. For the same molecule, the relative viability ([16]; first compound 20 µM) was 0.321, the relative viability ([17]; first compound 0.2 µM) was 0.496 and the relative viability ([17]; first compound 0.6325 µM) was 0.403. For the same molecule, the relative viability ([17]; first compound 2 µM) was 0.236, the relative viability ([17]; first compound 6.325 µM) was 0.346 and the relative viability ([17]; first compound 20 µM) was 0.334. The relative viability ([18]; first compound 0.2 µM) was 1.03, the relative viability ([18]; first compound 0.6325 µM) was 0.879 and the relative viability ([18]; first compound 2 µM) was 0.939. For the same molecule, the relative viability ([18]; first compound 6.325 µM) was 0.918, the relative viability ([18]; first compound 20 µM) was 0.486 and the relative viability ([19]; first compound 0.2 µM) was 1.21. For the same molecule, the relative viability ([19]; first compound 0.6325 µM) was 1.26, the relative viability ([19]; first compound 2 µM) was 0.73 and the relative viability ([19]; first compound 6.325 µM) was 0.416. The relative viability ([19]; first compound 20 µM) was 0.284, the relative viability ([20]; first compound 0.2 µM) was 0.178 and the relative viability ([20]; first compound 0.6325 µM) was 0.21. The relative viability ([20]; first compound 2 µM) was 0.181, the relative viability ([20]; first compound 6.325 µM) was 0.196 and the relative viability ([20]; first compound 20 µM) was 0.227. It also gave a relative viability ([21]; first compound 0.2 µM) of 0.223, a relative viability ([21]; first compound 0.6325 µM) of 0.189 and a relative viability ([21]; first compound 2 µM) of 0.221. The relative viability ([21]; first compound 6.325 µM) was 0.19, the relative viability ([21]; first compound 20 µM) was 0.22 and the relative viability ([22]; first compound 0.2 µM) was 0.29. It also gave a relative viability ([22]; first compound 0.6325 µM) of 0.542, a relative viability ([22]; first compound 2 µM) of 0.522 and a relative viability ([22]; first compound 6.325 µM) of 0.281. For the same molecule, the relative viability ([22]; first compound 20 µM) was 0.328.
